# Results taken from US20260108527A1, “POLO LIKE KINASE 4 INHIBITORS” (ORIC Pharmaceuticals, Inc., priority 2022, published 2026).
# Experiments:
# human recombinant PLK4 = target: T1, human recombinant PLK4 (Homo sapiens, UniProt O00444); assay: PLK4 Biochemical Assay (ADP-Glo); conditions: 0.5 nM PLK4, 8.0 μM ATP, 4.7 μM MBP, 6 hours at RT
# T1 construct: purchased ThermoFisher PV6396
# T1 sequence (O00444 1-970): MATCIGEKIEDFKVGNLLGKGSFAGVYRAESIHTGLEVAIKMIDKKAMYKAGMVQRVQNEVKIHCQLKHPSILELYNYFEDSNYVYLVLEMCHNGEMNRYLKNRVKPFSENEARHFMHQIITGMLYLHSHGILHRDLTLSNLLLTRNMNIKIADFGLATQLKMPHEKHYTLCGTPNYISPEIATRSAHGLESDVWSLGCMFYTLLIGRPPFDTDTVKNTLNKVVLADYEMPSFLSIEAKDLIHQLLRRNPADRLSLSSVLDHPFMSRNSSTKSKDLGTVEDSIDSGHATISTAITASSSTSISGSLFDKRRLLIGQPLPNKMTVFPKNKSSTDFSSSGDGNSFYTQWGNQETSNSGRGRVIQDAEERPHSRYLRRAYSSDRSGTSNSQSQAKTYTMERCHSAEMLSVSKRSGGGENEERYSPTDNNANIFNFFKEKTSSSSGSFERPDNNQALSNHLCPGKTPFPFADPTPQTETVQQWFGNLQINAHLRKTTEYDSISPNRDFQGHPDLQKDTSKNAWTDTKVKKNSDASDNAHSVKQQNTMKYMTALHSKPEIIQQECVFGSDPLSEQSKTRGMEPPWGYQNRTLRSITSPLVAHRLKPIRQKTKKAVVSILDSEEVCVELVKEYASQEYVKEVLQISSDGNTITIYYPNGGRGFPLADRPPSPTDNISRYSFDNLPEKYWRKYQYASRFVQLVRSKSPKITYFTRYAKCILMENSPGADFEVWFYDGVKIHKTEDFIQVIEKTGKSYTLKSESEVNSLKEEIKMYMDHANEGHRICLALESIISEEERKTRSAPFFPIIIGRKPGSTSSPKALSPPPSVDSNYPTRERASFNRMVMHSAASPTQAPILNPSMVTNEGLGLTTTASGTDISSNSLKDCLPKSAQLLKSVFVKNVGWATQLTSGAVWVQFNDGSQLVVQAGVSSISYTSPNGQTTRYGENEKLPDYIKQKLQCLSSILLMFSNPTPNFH
# Procedure: Activity of human recombinant PLK4 (ThermoFisher, cat #PV6396) was measured by quantification of adenosine diphosphate (ADP) using the ADP-Glo Kinase Assay Kit (Promega, cat #V9102). […] 5 μL of 1.0 nM PLK4 protein in assay buffer (50 mM HEPES, pH 7.5, 0.01% Brij-35, 0.01% BSA, 10 mM MgCl2, 1 mM EGTA, 1 mM DTT) was added to the plates. Test compounds and PLK4 were incubated for 15 minutes at room temperature (RT). […] Reactions were stopped and the remaining ATP depleted by adding 10 μL of ADP-Glo reagent (Promega, cat #V912B) and incubating for 40 minutes at RT. The simultaneous conversion of the remaining ADP to ATP and measurement of the newly synthesized ATP was achieved by addition of 20 μL Kinase Detection reagent (Promega, cat #V914B), incubation for 30 min at RT, and luminescence detection using the EnVision plate reader (PerkinElmer). […] The IC50 values reported in Table 2 were determined using four parameter non-linear regression curve fit.
# [1] = target: T2, human recombinant Aurora A (Homo sapiens, UniProt O14965); assay: Aurora A Kinase Biochemical Assay (ADP-Glo); conditions: selectivity ratio; Aurora A 2.5 nM, 20 μM ATP
# T2 construct: purchased ThermoFisher PR5935A
# T2 sequence (O14965 1-403): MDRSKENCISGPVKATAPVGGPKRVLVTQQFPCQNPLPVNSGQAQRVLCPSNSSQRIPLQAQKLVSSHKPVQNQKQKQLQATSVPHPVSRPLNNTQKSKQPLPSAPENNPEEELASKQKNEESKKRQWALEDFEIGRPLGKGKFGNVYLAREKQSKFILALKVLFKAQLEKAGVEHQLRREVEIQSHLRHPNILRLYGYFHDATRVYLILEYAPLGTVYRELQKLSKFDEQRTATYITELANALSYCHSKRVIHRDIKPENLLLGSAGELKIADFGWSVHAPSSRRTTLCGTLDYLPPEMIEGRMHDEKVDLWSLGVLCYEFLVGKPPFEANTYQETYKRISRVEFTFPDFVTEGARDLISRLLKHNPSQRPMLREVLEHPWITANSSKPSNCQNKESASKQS
# Procedure: Activity of human recombinant Aurora A (ThermoFisher, cat #PR5935A) was measured by quantification of adenosine diphosphate (ADP) using the ADP-Glo Kinase Assay Kit (Promega, cat #V9102). Test compounds were solubilized in dimethyl sulfoxide (DMSO) and dispensed into 384-well white polystyrene nonbinding plates (Greiner, cat #781094) using the Echo acoustic dispenser (Labcyte Inc.) in a 11-point 3-fold titration in duplicates. 5 μL of 5.0 nM Aurora A in assay buffer (50 mM HEPES, pH 7.5, 0.01% Brij-35, 0.01% BSA, 10 mM MgCl2, 1 mM EGTA, 1 mM DTT) was added to the plates. Test compounds and Aurora A were incubated for 15 minutes at room temperature (RT). Then 5 μL of a 40 μM adenosine triphosphate (ATP) (Promega, cat #V915B) and 9.3 μM Myelin Basic Protein (MBP) (SignalChem, cat #M42-51N) substrate solution in assay buffer was added and the reaction mixture was incubated for 2 hours at RT. The final concentration of Aurora A, ATP and MBP in the reactions were 2.5 nM, 20 μM and 4.7 μM, respectively. Reactions were stopped and the remaining ATP depleted by adding 10 μL of ADP-Glo reagent (Promega, cat #V912B) and incubating for 40 minutes at RT. The simultaneous conversion of the remaining ADP to ATP and measurement of the newly synthesized ATP was achieved by addition of 20 μL Kinase Detection reagent (Promega, cat #V914B), incubation for 30 min at RT, and luminescence detection using the EnVision plate reader (PerkinElmer). Reactions lacking Aurora A were used as 100% inhibition controls. Reactions containing DMSO alone were used as 0% inhibition controls. The IC50 values reported in Table 2 were determined using four parameter non-linear regression curve fit.
# [2] = target: T3, human recombinant Aurora B (Homo sapiens, UniProt Q96GD4); assay: Aurora B Kinase Biochemical Assay (ADP-Glo); conditions: selectivity ratio; Aurora B 10 nM, 114 μM ATP
# T3 construct: purchased ThermoFisher PR9210B
# Procedure: Activity of human recombinant Aurora B (ThermoFisher, cat #PR9210B) was measured by quantification of adenosine diphosphate (ADP) using the ADP-Glo Kinase Assay Kit (Promega, cat #V9102). Test compounds were solubilized in dimethyl sulfoxide (DMSO) and dispensed into 384-well white polystyrene nonbinding plates (Greiner, cat #781094) using the Echo acoustic dispenser (Labcyte Inc.) in a 11-point 3-fold titration in duplicates. 5 μL of 20 nM Aurora B in assay buffer (50 mM HEPES, pH 7.5, 0.01% Brij-35, 0.01% BSA, 10 mM MgCl2, 1 mM EGTA, 1 mM DTT) was added to the plates. Test compounds and Aurora B were incubated for 15 minutes at room temperature (RT). Then 5 μL of a 228 μM adenosine triphosphate (ATP) (Promega, cat #V915B) and 9.3 μM Myelin Basic Protein (MBP) (SignalChem, cat #M42-51N) substrate solution in assay buffer was added and the reaction mixture was incubated for 2 hours at RT. The final concentration of Aurora b, ATP and MBP in the reactions were 10 nM, 114 μM and 4.7 μM, respectively. Reactions were stopped and the remaining ATP depleted by adding 10 μL of ADP-Glo reagent (Promega, cat #V912B) and incubating for 40 minutes at RT. The simultaneous conversion of the remaining ADP to ATP and measurement of the newly synthesized ATP was achieved by addition of 20 μL Kinase Detection reagent (Promega, cat #V9141B), incubation for 30 min at RT, and luminescence detection using the EnVision plate reader (PerkinElmer). Reactions lacking Aurora B were used as […]. Reactions containing DMSO alone were used as […]. The IC50 values reported in Table 2 were determined using four parameter non-linear regression curve fit.
# CHP134 = CHP134 CellTiter-Glo (CTG) Assay; format: cell-based; conditions: Homo sapiens, CHP-134, 120 h; viable cells by CellTiter-Glo after 5 days
# Procedure: […] cells (DSMZ-German Collection of Microorganisms and Cell Cultures, Braunschweig Germany) were cultured in RPMI 1640 supplemented with 10% fetal bovine serum, penicillin (100 U/ml), 1% L-Glutamine and streptomycin ([…]). Cells were seeded (200 cells/well) in 384-well plates for 16 hours. On day two, nine serial 1:3 compound dilutions were made in DMSO in a 96-well plate. The compounds were then further diluted into growth media using a BRAVO robot (Agilent, Santa Clara, CA). The diluted compounds were then added to quadruplicate wells in the 384-well cell plate and incubated at 37° C. and 5% CO2. After 5 days, relative numbers of viable cells were measured by luminescence using CellTiter-Glo® (Promega) according to the manufacturer's instructions and read on a SPARK Multimode Microplate Reader (Tecan, Mannedorf Switzerland). The IC50 calculations for the values reported in Table 2 were carried out using Prism 6.0 software (GraphPad, San Diego).
# T3 sequence (Q96GD4 whole entry): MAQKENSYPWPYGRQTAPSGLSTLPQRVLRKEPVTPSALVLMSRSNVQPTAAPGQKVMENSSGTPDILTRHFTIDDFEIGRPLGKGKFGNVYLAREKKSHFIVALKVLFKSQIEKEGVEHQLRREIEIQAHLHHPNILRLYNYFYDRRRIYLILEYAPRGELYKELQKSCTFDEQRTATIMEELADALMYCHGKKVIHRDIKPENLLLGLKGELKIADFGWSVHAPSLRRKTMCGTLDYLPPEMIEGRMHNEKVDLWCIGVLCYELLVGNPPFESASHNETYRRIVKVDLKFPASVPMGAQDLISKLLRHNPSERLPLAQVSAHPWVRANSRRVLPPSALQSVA
SMILES,IC50 (human recombinant PLK4),[Aurora A IC50 (nM)]/[PLK4 IC50 (nM)] [1],[Aurora B IC50 (nM)]/[PLK4 IC50 (nM)] [2],IC50 (CHP134)
"COc1ccc2c(c1)[C@]1(C[C@H]1c1ccc3c(Nc4cc(-c5cn(C)nc5OC)ccc4OC)n[nH]c3c1)C(=O)N2 [Example 36, (1R,2S)-5′-methoxy-2-{3-[2-methoxy-5-(3-methoxy-1-methyl-1H-pyrazol-4-yl)anilino]-1H-indazol-6-yl}spiro[cyclopropane-1,3′-indol]-2′(1′H)-one]",2.29 nM,4350.9615,12202.7972,–
"COc1ccc2c(c1)[C@]1(C[C@H]1c1ccc3c(Nc4ccc(C5(N(C)C)COC5)cc4OC)n[nH]c3c1)C(=O)N2 [Example 9, (1R,2S)-2-(3-{4-[3-(dimethylamino)oxetan-3-yl]-2-methoxyanilino}-1H-indazol-6-yl)-5′-methoxyspiro[cyclopropane-1,3′-indol]-2′(1′H)-one]",0.862 nM,–,–,166 nM
"COc1ccc2c(c1)[C@]1(C[C@H]1c1ccc3c(Nc4nc(-c5cncnc5)ncc4OC)n[nH]c3c1)C(=O)N2 [Example 25, (1R,2S)-5′-methoxy-2-{3-[(5-methoxy[2,5′-bipyrimidin]-4-yl)amino]-1H-indazol-6-yl}spiro[cyclopropane-1,3′-indol]-2′(1′H)-one]",2.41 nM,934.8277,608.5512,–
